The record followed here is patent US8957062B2, “Substituted cyclopropyl compounds, compositions containing such compounds and methods of treatment” (Merck Sharp & Dohme Corp., priority 2011, dated 2015).

The first assay has as its target T1, human GPR119 (Homo sapiens, UniProt Q8TDV5).
T1 sequence (Q8TDV5 1-308 limits assumed): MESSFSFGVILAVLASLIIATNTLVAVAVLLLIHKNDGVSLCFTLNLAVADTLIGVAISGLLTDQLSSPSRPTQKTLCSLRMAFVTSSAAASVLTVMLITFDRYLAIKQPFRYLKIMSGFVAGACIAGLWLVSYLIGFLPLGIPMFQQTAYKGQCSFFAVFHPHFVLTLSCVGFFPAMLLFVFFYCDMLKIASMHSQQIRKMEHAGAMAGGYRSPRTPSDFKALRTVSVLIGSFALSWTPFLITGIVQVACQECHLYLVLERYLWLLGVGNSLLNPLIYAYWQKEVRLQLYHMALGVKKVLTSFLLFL
As to the kind of experiment: Measurement of GPR119 signaling (cAMP assay) in cells stably transfected with human GPR119. The conditions noted are these: stated in the example text; cAMP stimulation, human GPR119; read-out: GPR119 Human EC50. Format: cell-based. As for the experimental part: Measurement of GPR119 Signaling (Cyclic AMP (cAMP) Assay)
The adenylate cyclase assay was constructed following the LANCE™ cAMP Kit (Perkin Elmer, AD0264) instructions.
The reaction was stopped by incubating with the supplied detection buffer containing the europium chelate of the Eu-SA/Biotin-cAMP tracer for 3 hours. The assay was performed in duplicate in a 384 well plate for duplicate plates and fluorescence was measured at 665 nm. Basal activity was determined using a DMSO control and maximum response was defined as cAMP stimulation produced by an internal agonist control. Standard cAMP concentrations were assayed concurrently for conversion of fluorescence signal to cAMP level. The data was analyzed using 4-parameter curve fit in Microsoft Excel.
Measurement of GPR119 Signaling (cAMP Homogenous Time Resolved Fluorescence (HTRF) Assay)
Chinese hamster ovary (CHO) cell lines stably transfected with the permissive guanine nucleotide binding protein alpha 15 (Gα15) and murine GPR119 were maintained in DMEM media containing FBS, penicillin-streptomycin, puromycin, and G418 (geneticin). […] Agonist activation of the GPR119 receptor was measured in receptor transfected cells described above, treated with compounds of this invention, using a commercial homogenous time resolved fluorescence (HTRF) kit for measurement of cAMP (CisBio, Bedford, Mass.). The assay was performed in 96-well half-volume plates (murine) or 384-well plates (human) following the manufacturers instructions. Briefly, suspended cells were incubated with a dose titration of test compound at RT for 60 min, lysed, and incubated with HTRF reagents for an additional 60 min. The plate was read using an Envision multilabel reader (Perkin Elmer) adjusted to read time resolved fluorescence and the cAMP concentrations were extrapolated from a cAMP calibration curve. […] The concentration of test compound required to stimulate a half-maximal response (EC50), and efficacy as compared to an internal agonist control, was determined from a sigmoidal 4-parameter curve fit of the resulting plot of normalized activity versus compound concentration.
Take `CCS(=O)(=O)c1ccc(OCC[C@H]2C[C@H]2C2CCN(c3nc(COC)no3)CC2)cc1F` (stereo in doubt) [Example 15, 4-((1S,2R)-2-{2-[4-(ethylsulfonyl)-3-fluorophenoxy]ethyl}cyclopropyl)-1-[3-(methoxymethyl)-1,2,4-oxadiazol-5-yl]piperidine]: the half-maximal effective concentration (EC50) amounted to 8.4 nM.
Take `COCc1noc(N2CCC([C@@H]3C[C@@H]3CCOc3ccc(S(C)(=O)=O)cc3F)CC2)n1` (stereo in doubt) [Example 220, 4-((1S,2R)-2-{2-[2-fluoro-4-(methylsulfonyl)phenoxy]ethyl}cyclopropyl)-1-[3-(methoxymethyl)-1,2,4-oxadiazol-5-yl]piperidine]: the EC50 turned out to be 0.9 nM.
Same read-out and setting: next, `CC(C)COC(=O)N1CCC([C@H]2C[C@H]2CCOc2ccc(-n3cnnn3)cc2)CC1` [Example 1, isobutyl 4-((1R,2S)-2-(2-(4-(1H-tetrazol-1-yl)phenoxy)ethyl)cyclopropyl)piperidine-1-carboxylate]: 1.6 nM; `CC1(OC(=O)N2CCC([C@H]3C[C@H]3CCOc3ccc(-n4cnnn4)cc3)CC2)CC1` [Example 2, 1-methylcyclopropyl 4-((1R,2S)-2-(2-(4-(1H-tetrazol-1-yl)phenoxy)ethyl)cyclopropyl)piperidine-1-carboxylate]: 1 nM.
The same measure, in the same setting: with `CS(=O)(=O)c1ccc(OCC[C@@H]2C[C@@H]2C2CCN(C(=O)OCC3CC3)CC2)nc1` [Example 13, cyclopropylmethyl 4-((1R,2S)-2-(2-(5-(methylsulfonyl)pyridin-2-yloxy)ethyl)cyclopropyl)piperidine-1-carboxylate] the figure was 0.3 nM; with `Cc1cc(-n2cnnn2)cnc1OCC[C@@H]1C[C@@H]1C1CCN(C(=O)OC2(C)CC2)CC1` [Example 30, 1-methylcyclopropyl 4-[(1R,2S)-2-(2-{[3-methyl-5-(1H-tetrazol-1 yl)pyridin-2-yl]oxy}ethyl)cyclopropyl]piperidine-1-carboxylate], 0.7 nM.
Still for that read-out and setting: with `CC1(OC(=O)N2CCC([C@H]3C[C@H]3CCOc3ccc(-n4cncn4)cn3)CC2)CC1` [Example 34, 1-methylcyclopropyl 4-[(1R,2S)-2-(2-{[5-(1H-1,2,4-triazol-1-yl)pyridin-2-yl]oxy}ethyl)cyclopropyl]piperidine-1-carboxylate] the figure was 0.88 nM; with `CC(C)(C)OC(=O)N1CCC([C@H]2C[C@H]2CCOc2ccc(S(C)(=O)=O)cc2)CC1` [Example 35, tert-butyl 4-((1R,2S)-2-{2-[4-(methylsulfonyl)phenoxy]ethyl}cyclopropyl) piperidine-1-carboxylate], 0.9 nM; with `COC(=O)N1CCC([C@H]2C[C@H]2CCOc2cc(C#N)nc(C)n2)CC1` [Example 44], 34 nM.

The assay is the same for the next values; noted with them: table column; cAMP stimulation, human GPR119; read-out: GPR119 Human EC50.
As for `CC(C)(C)OC(=O)N1CCC([C@H]2C[C@H]2CCOc2ccc(-n3cnnn3)cc2)CC1` [Example 5], the EC50 worked out at 7 nM.
As for `CCOC(=O)N1CCC([C@H]2C[C@H]2CCOc2ccc(-n3cnnn3)cc2)CC1` [Example 6], the 50% effective concentration (EC50) was determined as 2 nM.
Still for that read-out and setting: next, `CCCOC(=O)N1CCC([C@H]2C[C@H]2CCOc2ccc(-n3cnnn3)cc2)CC1` [Example 7]: 0.8 nM; `O=C(OC1CCC1)N1CCC([C@H]2C[C@H]2CCOc2ccc(-n3cnnn3)cc2)CC1` [Example 8]: 1 nM.
On the same count and under the same terms, next, `CC(C)(C)COC(=O)N1CCC([C@H]2C[C@H]2CCOc2ccc(-n3cnnn3)cc2)CC1` [Example 9]: 15 nM.
On the same count and under the same terms, with `CC1(OC(=O)N2CCC([C@H]3C[C@H]3CCOc3ccc(-n4cnnn4)cc3)CC2)CCC1` [Example 10] the figure was 0.3 nM; with `CC(C)OC(=O)N1CCC([C@H]2C[C@H]2CCOc2ccc(-n3cnnn3)cc2)CC1` [Example 11], 1.5 nM.
`O=C(OCc1ccccc1)N1CCC([C@H]2C[C@H]2CCOc2ccc(-n3cnnn3)cc2)CC1` [Example 12]: the EC50 amounted to 11.8 nM.
On the same count and under the same terms, next, `CC(C)OC(=O)N1CCC([C@H]2C[C@H]2CCOc2ccc(S(C)(=O)=O)cn2)CC1` [Example 16]: 46 nM; `CC(C)(C)OC(=O)N1CCC([C@H]2C[C@H]2CCOc2ccc(S(C)(=O)=O)cn2)CC1` [Example 17]: 5.8 nM.
The same measure, in the same setting: with `CS(=O)(=O)c1ccc(OCC[C@@H]2C[C@@H]2C2CCN(C(=O)OC3CCC3)CC2)nc1` [Example 18] the figure was 0.4 nM; with `CC(C)COC(=O)N1CCC([C@H]2C[C@H]2CCOc2ccc(S(C)(=O)=O)cn2)CC1` [Example 19], 12 nM; with `CCOC(=O)N1CCC([C@H]2C[C@H]2CCOc2ccc(S(C)(=O)=O)cn2)CC1` [Example 20], 22 nM.
Same read-out and setting: next, `CC1(OC(=O)N2CCC([C@H]3C[C@H]3CCOc3ccc(S(C)(=O)=O)cn3)CC2)CCC1` [Example 21]: 0.6 nM; `CS(=O)(=O)c1ccc(OCC[C@@H]2C[C@@H]2C2CCN(C(=O)OCC3CCC3)CC2)nc1` [Example 22]: 5 nM; `CC1(COC(=O)N2CCC([C@H]3C[C@H]3CCOc3ccc(S(C)(=O)=O)cn3)CC2)CC1` [Example 23]: 0.6 nM.
For `CC1(OC(=O)N2CCC([C@H]3C[C@H]3CCOc3ccc(S(C)(=O)=O)cn3)CC2)CC1` [Example 24], the EC50 was found to be 4.2 nM.
Still for that read-out and setting: next, `CCC1(OC(=O)N2CCC([C@H]3C[C@H]3CCOc3ccc(S(C)(=O)=O)cn3)CC2)CC1` [Example 25]: 2.2 nM.
The same measure, in the same setting: with `CC1(COC(=O)N2CCC([C@H]3C[C@H]3CCOc3ccc(S(C)(=O)=O)cn3)CC2)CCC1` [Example 26] the figure was 0.6 nM; with `CCS(=O)(=O)c1ccc(OCC[C@@H]2C[C@@H]2C2CCN(C(=O)OC3(C)CC3)CC2)nc1` [Example 27], 0.9 nM; with `CCS(=O)(=O)c1ccc(OCC[C@@H]2C[C@@H]2C2CCN(c3nc(C(C)C)no3)CC2)cc1F` [Example 28], 1.8 nM.
`CCS(=O)(=O)c1ccc(OCC[C@@H]2C[C@@H]2C2CCN(c3nc(C(C)C)no3)CC2)cc1` [Example 29]: the concentration giving a half-maximal response (EC50) was determined as 7.7 nM.
Same read-out and setting: with `Cc1cc(-n2cnnn2)cnc1OCC[C@@H]1C[C@@H]1C1CCN(C(=O)OCc2ccccc2)CC1` [Example 31] the figure was 2.8 nM; with `O=C(OCc1ccccc1)N1CCC([C@H]2C[C@H]2CCOc2ccc(-n3cnnn3)cn2)CC1` [Example 33], 15 nM.
As to `CCS(=O)(=O)c1ccc(OCC[C@@H]2C[C@@H]2C2CCN(C(=O)OC3(C)CC3)CC2)cc1` [Example 36], the concentration giving a half-maximal response (EC50) was determined as 14.5 nM.
For the molecule `CC1(OC(=O)N2CCC([C@H]3C[C@H]3CCOc3ccc(S(=O)(=O)C4CC4)cc3)CC2)CC1` [Example 37], the EC50 amounted to 16 nM.
On the same count and under the same terms, with `CC(C)(C)OC(=O)N1CCC([C@H]2C[C@H]2CCOc2cc(F)c(S(C)(=O)=O)c(F)c2)CC1` [Example 38] the figure was 12 nM; with `CC(C)OC(=O)N1CCC([C@H]2C[C@H]2CCOc2cc(F)c(S(C)(=O)=O)c(F)c2)CC1` [Example 39], 6.6 nM; with `CC(C)OC(=O)N1CCC([C@H]2C[C@H]2CCOc2ccc(S(C)(=O)=O)c(F)c2)CC1` [Example 40], 2.3 nM.
On the same count and under the same terms, next, `CC(C)(C)COC(=O)N1CCC([C@H]2C[C@H]2CCOc2ccc(S(C)(=O)=O)c(F)c2)CC1` [Example 41]: 0.4 nM.
On the same count and under the same terms, next, `CCS(=O)(=O)c1ccc(OCC[C@@H]2C[C@@H]2C2CCN(C(=O)OC3(C)CC3)CC2)cc1F` [Example 42]: 2.5 nM; `CC1(OC(=O)N2CCC([C@H]3C[C@H]3CCOc3ccc(S(=O)(=O)C4CC4)c(F)c3)CC2)CC1` [Example 43]: 1 nM; `CCOC(=O)N1CCC([C@H]2C[C@H]2CCOc2cc(C#N)nc(C)n2)CC1` [Example 45]: 3.6 nM.
With `Cc1nc(C#N)cc(OCC[C@@H]2C[C@@H]2C2CCN(C(=O)OC(C)C)CC2)n1` [Example 46], the EC50 is 1.2 nM.
Take `Cc1nc(C#N)cc(OCC[C@@H]2C[C@@H]2C2CCN(C(=O)OC(C)(C)C)CC2)n1` [Example 47]: the concentration giving a half-maximal response (EC50) came to 0.2 nM.
